IC50 data for eight compounds are collected here from ChEMBL document CHEMBL1144347, “Endothelin-converting enzyme-1 inhibition and growth of human glioblastoma cells” (J Med Chem, 2005).

For experiment [1], the target named is T1, Endothelin-converting enzyme 1 (Homo sapiens, UniProt P42892).
T1 sequence (P42892 whole entry): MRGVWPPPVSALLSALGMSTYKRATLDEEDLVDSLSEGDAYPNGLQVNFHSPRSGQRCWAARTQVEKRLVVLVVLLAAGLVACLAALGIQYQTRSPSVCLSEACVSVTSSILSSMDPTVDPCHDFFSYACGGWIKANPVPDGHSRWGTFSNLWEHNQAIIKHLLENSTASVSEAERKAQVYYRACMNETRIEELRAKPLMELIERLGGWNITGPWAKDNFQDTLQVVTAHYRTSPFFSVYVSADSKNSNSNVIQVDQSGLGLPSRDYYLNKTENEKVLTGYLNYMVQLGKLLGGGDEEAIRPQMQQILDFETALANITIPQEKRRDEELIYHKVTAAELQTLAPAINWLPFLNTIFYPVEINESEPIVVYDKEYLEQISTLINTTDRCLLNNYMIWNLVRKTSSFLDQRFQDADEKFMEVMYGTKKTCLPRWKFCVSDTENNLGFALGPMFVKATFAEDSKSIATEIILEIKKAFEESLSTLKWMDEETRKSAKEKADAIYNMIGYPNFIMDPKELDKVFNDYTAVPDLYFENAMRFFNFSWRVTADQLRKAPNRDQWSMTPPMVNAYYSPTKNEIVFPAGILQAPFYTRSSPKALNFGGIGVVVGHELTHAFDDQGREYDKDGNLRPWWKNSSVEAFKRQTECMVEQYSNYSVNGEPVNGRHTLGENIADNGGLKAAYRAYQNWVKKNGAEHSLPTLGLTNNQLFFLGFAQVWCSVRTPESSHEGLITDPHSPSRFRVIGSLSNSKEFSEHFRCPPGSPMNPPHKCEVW
In words: Inhibitory concentration against human ECE-1 expressed in MDCK cells. It is filed as cell-based.

Experiment [2] concerns the target T1, Endothelin-converting enzyme 1. In words: Inhibitory concentration against human ECE-1 by RIA.
Experiment [3] can be described thus: cells. The following applies: Homo sapiens, Glioblastoma.
Description: Inhibitory concentration against DNA synthesis in LN18 glioblastoma cells
A further experiment has as its target Neprilysin (Homo sapiens, UniProt P08473). Put plainly: Inhibitory concentration against Neprilysin.
Experiment [4] concerns the target Angiotensin-converting enzyme (Homo sapiens, UniProt P12821). In words: Inhibitory concentration against human angiotensin I converting enzyme.
A short description of experiment [5]: cells. The following applies: Homo sapiens, Glioblastoma. This is another data set of the same source.
Description: (§1) Inhibitory concentration against DNA synthesis in LNZ308 glioblastoma cells
Experiment [6] in a line: cells. The following applies: Homo sapiens, Glioblastoma. This is another data set of the same source.
Description: as §1
A short description of experiment [7]: Inhibitory concentration of the compound was determined against DNA synthesis in LN18 glioblastoma cells. It is filed as functional, cell-based. The following applies: Homo sapiens.
Experiment [8] in a line: cells. The following applies: Homo sapiens, Glioblastoma. The source holds these as a separate data set.
Description: Inhibitory concentration againstDNA synthesis in LN18 glioblastoma cells

Where only a bound is given, the exact number is not on record here.

Chain of Angiotensin-converting enzyme (P12821 whole entry): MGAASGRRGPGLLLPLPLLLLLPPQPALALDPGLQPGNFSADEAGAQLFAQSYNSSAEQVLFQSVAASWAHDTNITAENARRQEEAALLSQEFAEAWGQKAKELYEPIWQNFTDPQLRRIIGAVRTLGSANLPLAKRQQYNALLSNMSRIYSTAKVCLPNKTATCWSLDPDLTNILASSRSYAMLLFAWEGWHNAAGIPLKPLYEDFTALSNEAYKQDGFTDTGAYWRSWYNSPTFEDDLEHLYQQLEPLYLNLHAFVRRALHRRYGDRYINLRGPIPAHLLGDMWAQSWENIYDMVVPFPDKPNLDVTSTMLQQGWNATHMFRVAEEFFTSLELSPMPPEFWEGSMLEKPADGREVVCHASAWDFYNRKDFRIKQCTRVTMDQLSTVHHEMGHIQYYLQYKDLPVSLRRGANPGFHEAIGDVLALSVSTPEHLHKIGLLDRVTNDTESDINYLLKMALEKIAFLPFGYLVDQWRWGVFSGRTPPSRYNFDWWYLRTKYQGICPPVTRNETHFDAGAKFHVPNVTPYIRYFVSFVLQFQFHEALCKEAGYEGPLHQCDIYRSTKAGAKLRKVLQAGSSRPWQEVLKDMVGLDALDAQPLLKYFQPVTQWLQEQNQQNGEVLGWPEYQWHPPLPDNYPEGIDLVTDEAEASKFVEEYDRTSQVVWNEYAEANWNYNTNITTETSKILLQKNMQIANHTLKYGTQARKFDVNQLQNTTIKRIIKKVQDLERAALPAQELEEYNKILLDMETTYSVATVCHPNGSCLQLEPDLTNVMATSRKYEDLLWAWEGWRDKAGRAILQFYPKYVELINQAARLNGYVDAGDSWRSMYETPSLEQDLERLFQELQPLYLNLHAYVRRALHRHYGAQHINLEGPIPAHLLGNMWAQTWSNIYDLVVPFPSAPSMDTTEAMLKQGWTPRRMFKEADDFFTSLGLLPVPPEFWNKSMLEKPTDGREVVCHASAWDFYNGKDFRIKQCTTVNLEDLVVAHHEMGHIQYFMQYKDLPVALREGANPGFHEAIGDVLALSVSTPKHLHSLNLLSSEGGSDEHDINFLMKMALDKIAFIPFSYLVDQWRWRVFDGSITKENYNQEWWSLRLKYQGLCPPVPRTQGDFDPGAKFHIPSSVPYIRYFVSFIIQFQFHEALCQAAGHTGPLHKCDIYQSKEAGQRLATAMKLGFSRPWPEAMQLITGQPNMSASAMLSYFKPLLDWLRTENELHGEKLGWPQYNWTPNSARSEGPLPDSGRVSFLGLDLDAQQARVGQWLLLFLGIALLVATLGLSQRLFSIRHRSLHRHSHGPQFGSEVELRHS
Chain of Neprilysin (P08473 whole entry): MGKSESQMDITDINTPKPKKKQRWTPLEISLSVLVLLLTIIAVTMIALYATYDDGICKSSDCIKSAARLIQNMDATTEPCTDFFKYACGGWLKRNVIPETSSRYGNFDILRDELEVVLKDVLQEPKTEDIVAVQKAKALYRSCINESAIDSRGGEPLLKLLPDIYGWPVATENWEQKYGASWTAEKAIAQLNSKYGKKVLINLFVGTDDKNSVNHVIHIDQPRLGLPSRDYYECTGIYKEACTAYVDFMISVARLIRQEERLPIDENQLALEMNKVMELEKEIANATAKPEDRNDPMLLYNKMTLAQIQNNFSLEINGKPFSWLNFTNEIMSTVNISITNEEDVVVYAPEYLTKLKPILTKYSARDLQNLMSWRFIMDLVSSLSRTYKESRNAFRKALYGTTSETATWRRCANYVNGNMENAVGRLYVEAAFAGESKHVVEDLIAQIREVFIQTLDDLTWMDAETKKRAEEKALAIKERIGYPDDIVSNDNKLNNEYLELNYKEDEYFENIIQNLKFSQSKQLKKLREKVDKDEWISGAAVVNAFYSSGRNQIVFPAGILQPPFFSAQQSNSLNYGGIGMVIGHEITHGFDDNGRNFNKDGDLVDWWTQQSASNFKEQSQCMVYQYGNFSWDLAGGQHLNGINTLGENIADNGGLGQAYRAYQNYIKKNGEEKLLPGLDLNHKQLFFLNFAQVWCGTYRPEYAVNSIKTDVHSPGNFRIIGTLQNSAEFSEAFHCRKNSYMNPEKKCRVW

As a reminder, the IC50 is the midpoint of a concentration-inhibition curve. Higher therefore signals weaker potency. Turning to `O=C(S[C@@H]1C[C@@H](COCc2cc(F)c(F)cc2F)N(C(=O)Oc2cccc3c2OCCO3)C1)c1ccccc1`, the IC50 was 0.48 µM in [1]; 0.0497 µM in experiment [2]; 18 µM in the experiment “cells [3]”; over 100 µM against Neprilysin; over 100 µM in experiment [4]; 20 µM in the experiment “cells [5]”.
On to `COC(=O)c1ccccc1NC(=O)CN(C)C(=O)C1C[C@@H](S)CN1S(=O)(=O)c1ccc2ccccc2c1` (some centres undefined), for which the half-inhibitory concentration (IC50) in [1] is 10.9 µM; in experiment [2] it was 0.0808 µM; in “cells [3]”, 12 µM; against Neprilysin, 81.9 µM; in [4], 36.6 µM; in the experiment “cells [5]” it was 16 µM.
Regarding `CC(C)OC(=O)N1C[C@H](S)C[C@H]1CNCc1cc(F)ccc1F`, the IC50 in experiment [1] is 1.09 µM; in experiment [2], 0.016 µM; in “cells [3]”, 27 µM; against Neprilysin it was over 100 µM; in [4], over 100 µM; in the experiment “cells [5]”, 50 µM.
Turning to `CCCc1cnc(N2C[C@H](S)C[C@H]2CNCc2cc(F)ccc2F)nc1`, the IC50 is 0.0729 µM in experiment [1]; 40 µM in the experiment “cells [6]”; 0.0104 µM in [2]; 19 µM in experiment [7]; over 100 µM on Neprilysin; 31.5 µM in [4].
In [2], `O=P(O)(O)C(Cc1ccc2ccccc2c1)N[C@@H](Cc1ccc(-c2ccccc2)cc1)c1nnn[nH]1` (some centres undefined) [CGS-314447] returned an IC50 of 0.02 µM.
Turning to `Cc1ccc(S(=O)(=O)NN(C)C(=O)C2C[C@@H](S)CN2S(=O)(=O)c2ccc3ccccc3c2)cc1` (some centres undefined), the IC50 in experiment [1] amounted to 2.53 µM; in experiment [2], 0.0613 µM; at Neprilysin, 39.2 µM; in experiment [4] it was 14.6 µM.
Regarding `CC(=O)S[C@@H]1C[C@@H](COCc2cc(F)c(F)cc2F)N(C(=O)Oc2cccc3c2OCCO3)C1`, the IC50 in experiment [1] is 0.0765 µM; in “cells [6]”, 16 µM; in [2], 0.0069 µM; in the experiment “cells [8]” it was 14 µM; at Neprilysin, over 100 µM; in experiment [4], over 100 µM.
Take `COC(=O)c1ccccc1OC(=O)N1CC(S)CC1COCc1cc(F)c(F)cc1F` (centres undefined): the IC50 in experiment [1] is 0.067 µM; in [2], 0.0012 µM; at Neprilysin it was over 100 µM; in experiment [4], 13.4 µM.
